Data reported in patent US20240156861A1, “Cisplatin particles and uses thereof” (CRITITECH, INC., priority 2022, published 2024).
Several values for one entry are separate records, joined by “and”; a condition that tells them apart may be missing. Equal entries are not always repeated.

Experiments:
[1] = test system: H69 human lung carcinoma xenograft; experiment: Tumor-site tissue platinum concentrations and PK parameters by ICP-MS in H69 xenograft mice; assay type: in vivo, female athymic nude mice;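 as to Individual Tumor-Site Tissue Platinum Concentrations: unit μg/g tissue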;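 as to Mean Tumor-Site Tissue Platinum Concentrations: unit μg/g tissue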
Method: (§1) A total of 130 female athymic nude mice bearing the H69 human lung carcinoma xenograft were assigned to 10 treatment groups. Group 1 (N=5 females) served as the no treatment control. All intratumoral (IT) injections were delivered as single 25 μL injections. […] The maximum concentration of cisplatin solution and LSAM-Cisplatin suspension is 1 mg/mL and 10 mg/mL, respectively. The IT maximum feasible dose (MFD) for cisplatin solution is 25 μg and 250 μg for LSAM-Cisplatin suspension. Group 2 (N=10 females) was administered 47.5% ethanol/47.5% glycerin/5% water IT on Study Days 1 and 16 and served as control. Group 3 (N=20 females) received 133 μg cisplatin intraperitoneal (IP), considered the standard of care (SOC), once weekly for 3 cycles (Days 1, 8, and 15. Group 4 (N=5) was administered a single 125 μg large surface area microparticle (LSAM)-Cisplatin IT injection on Day 1. Group 5 (N=5 females) received a single 187.5 μg LSAM-Cisplatin IT injection on Day 1. Group 6 (N=5 females) was administered a single 250 μg LSAM-Cisplatin IT injection on Day 1. Group 7 (N=20 females) received single 25 μg cisplatin IT injections on Days 1 and 16. Group 8 (N=20 females) received single 125 μg LSAM-Cisplatin IT injections on Days 1 and 16. Group 9 (N=20 females) received single 187.5 μg LSAM-Cisplatin IT injections on Days 1 and 16. Group 10 (N=20 females) received single 250 μg LSAM-Cisplatin IT injections on Days 1 and 16. One hour postdose on Day 1, blood and tumor tissue were collected for determination of platinum concentrations from 3 Group 2 females and 5 females from Groups 3 and 7-10. On Days 8, 16 (predose) and 28, blood and tumor tissue were collected for determination of platinum concentrations from 5 females/Study Day from Groups 3 and 7-10. Total platinum concentrations in blood and tumor tissues were determined by inductively coupled plasma mass spectrometry (ICP-MS).
(§2) The LSAM-Cisplatin pharmacology study was conducted to: • Quantitate platinum content in whole blood and tumors to animals administered cisplatin IP (standard of care, SOC), the MFD of IT cisplatin, and IT LSAM- Cisplatin at the maximum feasible dose (MFD) and two lower doses • Evaluate tumor response • Evaluate increased doses of IT LSAM-Cisplatin up to 2X systemic maximum tolerated dose (MTD) • Evaluate one vs two injections • Evaluate recurrences if tumors regressed
(§3) Blood and tumor-site tissue were collected from each treatment group according to Table 4.
(§4) All blood and tumor-site tissue platinum concentrations that were reported as BLQ were considered as zero for statistical purposes. Mean and standard deviation are the only statistics reported for blood and tumor-site tissue platinum concentrations and platinum blood to tumor tissue ratios. Composite maximum observed concentration (Cmax), time of Cmax (Tmax), and area under the concentration-time curve (AUC) values for platinum in blood and tumor tissue following single and repeated administration of cisplatin or LSAM-Cisplatin are reported.

[2] = Blood platinum concentrations and PK parameters by ICP-MS in H69 xenograft mice; assay type: in vivo, female athymic nude mice; settings: for Mean Blood Platinum Concentrations / Individual Blood Platinum Concentrations: Group 3: 6 mg/kg IP on Days 1, 8, 15; for Individual Blood Platinum Concentrations: 6 mg/kg
Method: as §1, §2, §3, §4

[3] = multiple doses, 6 mg/kg IP on Days 1, 8, and 15
[4] = multiple doses, ~1.1 mg/kg IT on Days 1 and 16
[5] = single dose Day 1, ~1.1 mg/kg IT

N.N.[Cl][Pt][Cl] [Cisplatin]
Mean Tumor-Site Tissue Platinum Concentrations ([1]; Group 3: 6 mg/kg IP on Days 1, 8, 15, Day 1 (1 hour postdose)): 0.734 µg/g | Individual Tumor-Site Tissue Platinum Concentrations ([1]; Group 3: 6 mg/kg IP on Days 1, 8, 15, Day 1 (1 hour postdose), 6 mg/kg): 0.901 μg/g and BLQ (below the limit of quantitation (<0.650 μg/g) and treated as zero for statistical purposes) and 1.15 μg/g and 0.777 μg/g and 0.843 μg/g | Individual Tumor-Site Tissue Platinum Concentrations ([1]; Group 3: 6 mg/kg IP on Days 1, 8, 15, Day 8 (pre-dose)): BLQ (below the limit of quantitation (<0.650 μg/g) and treated as zero for statistical purposes) | Mean Tumor-Site Tissue Platinum Concentrations ([1]; Group 3: 6 mg/kg IP on Days 1, 8, 15, Day 8 (pre-dose), BLQ treated as zero): 0.00 µg/g | Mean Tumor-Site Tissue Platinum Concentrations ([1]; Group 3: 6 mg/kg IP on Days 1, 8, 15, Day 16): 1.39 µg/g | Individual Tumor-Site Tissue Platinum Concentrations ([1]; Group 3: 6 mg/kg IP on Days 1, 8, 15, Day 16, 6 mg/kg): 0.753 µg/g and 1.17 µg/g and 1.27 µg/g and 2.62 µg/g and 1.12 µg/g | Mean Tumor-Site Tissue Platinum Concentrations ([1]; Group 3: 6 mg/kg IP on Days 1, 8, 15, Day 28): 0.459 µg/g | Individual Tumor-Site Tissue Platinum Concentrations ([1]; Group 3: 6 mg/kg IP on Days 1, 8, 15, Day 28, 6 mg/kg): BLQ (below the limit of quantitation (<0.650 μg/g) and treated as zero for statistical purposes) (3×) and 0.933 μg/g and 1.36 μg/g | Mean Tumor-Site Tissue Platinum Concentrations ([1]; Group 7: 1.1 mg/kg IT on Days 1 and 16, Day 1 (1 hour postdose)): 11.3 µg/g | Individual Tumor-Site Tissue Platinum Concentrations ([1]; Group 7: 1.1 mg/kg IT on Days 1 and 16, Day 1 (1 hour postdose), 1.1 mg/kg): 14.4 µg/g and 13.2 µg/g and 9.66 µg/g and 8.68 µg/g and 10.4 µg/g | Mean Tumor-Site Tissue Platinum Concentrations ([1]; Group 7: 1.1 mg/kg IT on Days 1 and 16, Day 8): 3.23 µg/g | Individual Tumor-Site Tissue Platinum Concentrations ([1]; Group 7: 1.1 mg/kg IT on Days 1 and 16, Day 8, 1.1 mg/kg): 3.06 µg/g and 4.74 µg/g and 4.29 µg/g and 3.02 µg/g and 1.06 µg/g | Mean Tumor-Site Tissue Platinum Concentrations ([1]; Group 7: 1.1 mg/kg IT on Days 1 and 16, Day 16 (predose)): 2.97 µg/g | Individual Tumor-Site Tissue Platinum Concentrations ([1]; Group 7: 1.1 mg/kg IT on Days 1 and 16, Day 16 (predose), 1.1 mg/kg): 1.90 μg/g and 2.42 μg/g and 7.79 μg/g and 2.76 μg/g and BLQ (below the limit of quantitation (<0.650 μg/g) and treated as zero for statistical purposes) | Mean Tumor-Site Tissue Platinum Concentrations ([1]; Group 7: 1.1 mg/kg IT on Days 1 and 16, Day 28): 9.11 µg/g | Individual Tumor-Site Tissue Platinum Concentrations ([1]; Group 7: 1.1 mg/kg IT on Days 1 and 16, Day 28, 1.1 mg/kg): 20.2 µg/g and 8.89 µg/g and 6.35 µg/g and 7.97 µg/g and 2.16 µg/g | Tumor-Site Tissue Platinum AUC0-t [1, 3]: 470 µg·h/g | Tumor-Site Tissue Platinum Tmax [1, 3]: 384 h | Tumor-Site Tissue Platinum AUC0-t [1, 4]: 3,728 μg · hr/g | Tumor-Site Tissue Platinum Tmax [1, 4]: 1 h | Tumor-Site Tissue Platinum AUC0-192 ([1]; single dose Day 1, 6 mg/kg IP): 70.5 µg·h/g | Tumor-Site Tissue Platinum Tmax ([1]; single dose Day 1, 6 mg/kg IP): 1 h | Tumor-Site Tissue Platinum AUC0-192 [1, 5]: 1,393 μg · hr/g | Tumor-Site Tissue Platinum AUC0-384 [1, 5]: 1,988 μg · hr/g | Tumor-Site Tissue Platinum Tmax [1, 5]: 1 h | mean Day 28 tumor-site tissue platinum concentrations, IT versus IP ([1]; ~1.1 mg/kg IT Days 1 and 16 versus 6 mg/kg IP Days 1, 8, 15): greater than following IP administration | Day 28 blood platinum concentrations, IP versus IT ([2]; 6 mg/kg IP (SOC) versus ~1.1 mg/kg IT Days 1 and 16): higher | Mean Blood Platinum Concentrations ([2]; Day 1 (1 hour postdose)): 793 ng/mL | Individual Blood Platinum Concentrations ([2]; Day 1 (1 hour postdose)): 977 ng/mL and 221 ng/mL and 891 ng/mL and 1040 ng/mL and 838 ng/mL | Mean Blood Platinum Concentrations ([2]; Day 8 (pre-dose)): 368 ng/mL | Individual Blood Platinum Concentrations ([2]; Day 8 (pre-dose)): 441 ng/mL and 304 ng/mL and 428 ng/mL and 241 ng/mL and 426 ng/mL | Mean Blood Platinum Concentrations ([2]; Day 16): 1180 ng/mL | Individual Blood Platinum Concentrations ([2]; Day 16): 884 ng/mL and 1310 ng/mL and 1270 ng/mL and 1110 ng/mL and 1330 ng/mL | Mean Blood Platinum Concentrations ([2]; Day 28): 396 ng/mL | Individual Blood Platinum Concentrations ([2]; Day 28): 493 ng/mL and 472 ng/mL and 363 ng/mL and 188 ng/mL and 465 ng/mL
